Data on 13 compounds can be found in patent US10829440B2, “Antibacterial compounds and methods of making and using same” (Brown University, priority 2015, dated 2020).

One experiment addresses LytG (GH73) (Bacillus subtilis, UniProt O32083). The experiment can be described thus: In vitro GlcNAcase inhibition, turbidometric assay with purified peptidoglycan. The class given is biochemical, B. subtilis. The text has this: FIG. 9 is a graph illustrating inhibition of LytG (GH73) from B. subtilis by fgka. The assay involved in vitro GlcNAcase inhibition of B. subtilis LytG by fgka, as measured using turbidometric assays with purified peptidoglycan (Horsburgh, et al., 2003, Biochemistry 42:257).

The next experiment addresses FlgJ (GH73) (Salmonella typhimurium, UniProt P15931). The experiment in a line: Inhibition of FlgJ (GH73). The class given is biochemical, Salmonella enterica. Here is the method: Activity was measured as described in Herlihey, et al. 2014, J. Biol Chem 289(45):31029.
Experiment [1] deals with B. subtilis. The experiment in a line: Resazurin microtiter MIC / serial dilution whole-cell assay. The conditions noted are these: for Minimum inhibitory concentration (MIC), lowest concentration preventing color change blue to pink: serial dilution 250 μM down to 7.9 μM, triplicate, plates incubated only 30 minutes due to experimental error. A general note: Resazurin is reduced to fluorescent resorufin, in cell work by metabolically active cells.
Description: (§1) Bacillus subtilis ATCC 11775 was plated on agar from a 20% glycerol stock solution stored at −80° C. Inoculated plates were then incubated at 37° C. under aerobic conditions for 16 hours. Single cultures were transferred to Nutrient Broth (NB) and cultured for 16 hours under the same conditions.
(§2) Second passage cultures were standardized to O.D.600 nm=1.0.
The resazurin microtiter assay procedure described by Palomino and coworkers was used for assessing antimicrobial activity (Palomino. et al., 2002, Antimicrob. Agents Chemother. 46:2720-2722). The assay was performed in LB broth. Resazurin sodium salt powder was prepared in distilled water and filter sterilized at 0.001% (w/v) for MIC assays and at 0.01% (w/v) for single concentration assays. Compounds were first screened in MIC assays to assess whether growth inhibition was dependent on inhibitor concentration. The plates were incubated for 30 min under aerobic conditions. Growth controls containing no inhibitory compound, sterility controls without inoculation, and controls containing a known antibiotic, chloramphenicol, were also included. The innoculum was prepared from second passage cultures in Nutrient Broth (NB) and standardized to O.D.600 nm=1.0 and the wells inoculated with a 1:20 dilution. Serial two-fold dilutions of each compound in 100 μL of medium were prepared directly in 96 well plates at concentrations ranging from 250 μM to 7 μM. After incubation 30 μL of resazurin solution was added to each well and incubated for 30 min. A change in color from blue to pink indicated reduction of resazurin, and therefore bacterial growth. Minimum inhibitory concentration (MIC) was determined as the lowest drug concentration that prevented the color change from blue to pink. Inhibition was quantified by observation of color change. Later studies were carried out at a single inhibitor concentration of 250 μM. The plates were incubated for 4 h under aerobic conditions with the same controls. After incubation 30 μL of resazurin solution was added to each well and incubated for 60 min. Inhibition was quantified by fluorescence readings from plate reader SAFIRE, Firmware: V 2.20 08/02 Safire. […] Plates were held at 37° C. and fluorescence measurements were taken at 0, 5, 10, 20, 30, and 60 min after addition of dye. Lower fluorescence values correlate to greater degrees of inhibition.
Compounds were tested in vivo for their capacity to inhibit B. subtilis growth. […] Resorufin is also fluorescent and can be measured by a plate-reader.
Each dilution was run in triplicate. […] Minimum inhibitory concentration (MIC) was determined as the lowest drug concentration that prevented the color change from blue to pink. The fluorescence was again quantified by a plate reader, and two identical plates were run simultaneously.

In experiment [2] the test system is B. subtilis. The experiment in a line: Single concentration (250 μM) whole-cell resazurin fluorescence assay. The conditions noted are these: for degree of inhibition (smallest values of fluorescence): 250 μM inhibitor, fluorescence at 60 min.
Description: as §1, §2
The resazurin microtiter assay procedure described by Palomino and coworkers was used for assessing antimicrobial activity (Palomino. et al., 2002, Antimicrob. Agents Chemother. 46:2720-2722). The assay was performed in LB broth. Resazurin sodium salt powder was prepared in distilled water and filter sterilized at 0.001% (w/v) for MIC assays and at 0.01% (w/v) for single concentration assays. […] Growth controls containing no inhibitory compound, sterility controls without inoculation, and controls containing a known antibiotic, chloramphenicol, were also included. […] Later studies were carried out at a single inhibitor concentration of 250 μM. The plates were incubated for 4 h under aerobic conditions with the same controls. After incubation 30 μL of resazurin solution was added to each well and incubated for 60 min. Inhibition was quantified by fluorescence readings from plate reader SAFIRE, Firmware: V 2.20 08/02 Safire. Excitation wavelength set to 560 nm, emission wavelength set to 590 nm. Well containing dye and non-inoculated cells was used as gain set. Plates were held at 37° C. and fluorescence measurements were taken at 0, 5, 10, 20, 30, and 60 min after addition of dye. Lower fluorescence values correlate to greater degrees of inhibition.
Compounds were tested in vivo for their capacity to inhibit B. subtilis growth. In order to determine growth inhibition, a resazurin whole-cell assay was used (Kuhn, et al., 2014, Medchemcomm 5:1213-1217). […] The resazurin is naturally a blue color, but with reductive species produced during bacterial growth, it is reduced to resorufin, which appears pink. Resorufin is also fluorescent and can be measured by a plate-reader.
In an initial set-up, each compound was evaluated at the single concentration of 250 μM in triplicate. Growth controls containing no inhibitory compound, sterility controls without inoculation, and controls containing a known antibiotic, chloramphenicol, were also included. After incubation of the bacteria with the inhibitors for four hours, resazurin dye was added and the plate was immediately placed in a plate reader. Fluorescence of each well was measured at 590 nm at 0, 5, 10, 20, and 60 min after addition of the dye. A higher growth rate of bacteria produces more resorufin and thus more fluorescence. Lower fluorescence therefore indicates better growth inhibition.
Fluorescence was further evaluated as it developed over time.
The subject of another experiment is S. pneumoniae. The experiment can be described thus: MIC against Gram-positive organisms: S. pneumoniae. It is filed as cell-based, Streptococcus pneumoniae. Conditions: for MIC: Streptococcus pneumoniae, read-out: Minimum inhibitory concentration (MIC) S. pneumoniae.
Experiment [3] relates to B. subtilis. The experiment in a line: MIC against Gram-positive organisms: B. subtilis. It is filed as cell-based. Conditions: Bacillus subtilis; read-out: Minimum inhibitory concentration (MIC) B. subtilis.
Experiment [4] has as its system peptidoglycan synthesis/metabolism in B. subtilis. The experiment can be described thus: UDP-MurNAc-pentapeptide accumulation (nucleotide sugar extraction, C18-RP-HPLC). The class given is cell-based, Bacillus subtilis. The conditions noted are these: 4×MIC for 1 h after chloramphenicol pretreatment. Here is the method:
Ugi-derived terminal alkynes target peptidoglycan synthesis/metabolism. B. subtilis was grown to mid-exponential phase (O.D.600˜0.6) and all cultures treated with Chloramphenicol (Cm) ([…]) for 15 min. Cultures were then exposed to vancomycin (Van) ([…]) or fgkc (4×MIC) for 1 h. Nucleotide sugars were extracted with hot water and separated by C18-RP-HPLC. (*) denotes retention time of UDP-MurNAc-pentapeptide.

A further experiment relates to S. aureus. The experiment can be described thus: MIC against Gram-positive organisms: S. aureus. The class given is cell-based, Staphylococcus aureus. The conditions noted are these: for MIC: Staphylococcus aureus, read-out: Minimum inhibitory concentration (MIC) S. aureus.
The next experiment concerns P. difficile. The experiment can be described thus: MIC against Gram-positive organisms: P. difficile. It is filed as cell-based, Clostridium difficile (Peptoclostridium difficile). The conditions noted are these: Clostridioides difficile; read-out: Minimum inhibitory concentration (MIC) P. difficile.
A further experiment has as its system E. coli. Conditions: cited from earlier work.

≈ marks a conversion by molar mass, not a printed value.

Sequence of FlgJ (GH73) (P15931 whole entry): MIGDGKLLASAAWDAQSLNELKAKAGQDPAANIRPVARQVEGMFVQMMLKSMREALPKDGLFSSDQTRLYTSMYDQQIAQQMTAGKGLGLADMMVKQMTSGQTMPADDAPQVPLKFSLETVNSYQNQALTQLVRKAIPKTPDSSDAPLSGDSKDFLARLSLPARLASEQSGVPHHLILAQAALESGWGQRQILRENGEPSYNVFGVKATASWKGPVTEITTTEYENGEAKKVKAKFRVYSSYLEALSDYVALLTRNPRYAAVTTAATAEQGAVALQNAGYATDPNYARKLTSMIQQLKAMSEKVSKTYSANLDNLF
Sequence of LytG (GH73) (O32083 30-282): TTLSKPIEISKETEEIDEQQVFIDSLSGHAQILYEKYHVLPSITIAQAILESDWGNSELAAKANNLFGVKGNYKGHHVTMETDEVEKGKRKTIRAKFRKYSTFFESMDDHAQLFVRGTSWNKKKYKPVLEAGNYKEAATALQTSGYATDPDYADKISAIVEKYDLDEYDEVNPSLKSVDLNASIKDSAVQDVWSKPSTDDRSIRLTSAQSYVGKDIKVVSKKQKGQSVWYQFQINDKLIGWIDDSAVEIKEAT

Regarding `CCCCNC(=O)C(C1CCCCC1)N(Cc1cn(C2OC(CO)C(O)C(O)C2NC(C)=O)nn1)C(=O)c1ccccc1I` (stereo not shown) [BI.fgba], the “inhibition of GlcNAcase LytG” value at LytG (GH73) is “inhibits”. Further, the “inhibition of FlgJ (GH73)” value against FlgJ (GH73) was “weak inhibition”. In addition, in the experiment with B. subtilis [1] (Bacillus subtilis, read-out: minimum inhibitory concentration (MIC)), the MIC is 63 µM (≈ 45.8 µg/mL). Also, the bacteriostatic activity entry with B. subtilis [1] (bacterial strain B. subtilis) is listed as “concentration-dependent bacteriostatic activity”.
For `O=C(NCc1ccccc1)C(C1CCCCC1)N(C(=O)c1ccccc1I)C1CCCCC1` (stereo not shown) [fgkb], in the experiment on B. subtilis [2], the “antibacterial activity against B. subtilis Lyt G” value was “antibacterial activity” and the “degree of inhibition (smallest values of fluorescence)” value is on record as “highest degree of inhibition”.
On to `O=C(NC1CCCCC1)C(C1CCCCC1)N(C(=O)c1ccccc1I)C1CCCCC1` (stereo not shown) [fgkc], for which the “antibacterial activity against S. pneumoniae” value in the experiment on S. pneumoniae is reported as “antibacterial activity”. For the same compound, in the experiment with B. subtilis [3], the MIC was determined as 1.65 µg/mL (≈ 3 µM). Besides, the UDP-MurNAc-pentapeptide accumulation result in experiment [4] is “results in UDP-MurNAc-pentapeptide accumulation”. Also, in the experiment on B. subtilis [2], the “antibacterial activity against B. subtilis Lyt G” value is reported as “antibacterial activity” and the “degree of inhibition (smallest values of fluorescence)” value is “highest degree of inhibition”.
`C#CCN(C(=O)c1ccccc1)C(C(=O)NCCCC)C1CCCCC1` (stereo not shown) [rgba]: in the experiment with B. subtilis [1], the “Minimum inhibitory concentration (MIC), lowest concentration preventing color change blue to pink” value was 250 µM (≈ 88.6 µg/mL).
Regarding `C#CCN(C(=O)c1ccccc1I)C(C(=O)NCc1ccccc1)C1CCCCC1` (stereo not shown) [fgbb], in the experiment on S. pneumoniae, the “antibacterial activity against S. pneumoniae” value is reported as “antibacterial activity” and the MIC was determined as 3.62 µg/mL (≈ 7.04 µM).
As to `CCCCNC(=O)C(C1CCCCC1)N(C(=O)c1ccccc1I)C1CCCCC1` (stereo not shown) [fgka], the MIC with B. subtilis [3] came to 11.5 µg/mL (≈ 22 µM).
As to `COc1ccc(C(C(=O)NCc2ccccc2)N(C(=O)c2ccccc2I)c2ccccc2)cc1` (stereo not shown) [fbqb], the “activity (structure-activity comparison)” value in the experiment on B. subtilis [2] (250 μM, compared to aliphatic derivatives) was “lower activity”.
Regarding `C#CCN(C(=O)c1ccccc1I)C(C(=O)NC1CCCCC1)C1CCCCC1` (stereo not shown) [fgbc], in the experiment with S. pneumoniae, the “antibacterial activity against S. pneumoniae” value is given as “antibacterial activity” and the MIC turned out to be 3.56 µg/mL (≈ 7.03 µM).
Turning to `CCCCNC(=O)C(C1CCCCC1)N(C(=O)c1ccccc1I)c1ccccc1` (stereo not shown) [fgqa], in the experiment on S. aureus, the MIC was found to be 3.64 µg/mL (≈ 7.02 µM).
For the compound `CCCCNC(=O)C(C1CCCCC1)N(C(=O)c1ccccc1I)C(C)(C)C` (stereo not shown) [fgna], the MIC with P. difficile turned out to be 17.5 µg/mL (≈ 35.1 µM).
In the case of `CCCCNC(=O)C(C1CCCCC1)N(C(=O)c1ccccc1I)C(C)C` (stereo not shown) [fgoa], the “Minimum inhibitory concentration (MIC), lowest concentration preventing color change blue to pink” value with B. subtilis [1] is 62.5 µM (≈ 30.3 µg/mL).
For the compound `C#CCN(C(=O)c1ccccc1I)C(C(=O)NCCCC)C1CCCCC1` (stereo not shown) [fgba], in the experiment on S. aureus, the “antibacterial activity against S. aureus” value is listed as “antibacterial activity” and the MIC is 2.81 µg/mL (≈ 5.85 µM). Besides, the “inhibition of FlgJ (GH73)” value at FlgJ (GH73) is “weak inhibition”.
On to `CC1=N[C@@H]2[C@@H](O)[C@H](O)[C@@H](CO)O[C@@H]2S1` [NAG-thiazoline], for which the “effect on the viability of E. coli” value in the experiment on E. coli is reported as “no effect”.
